In the case of `CC(C)(C)OC(=O)NCC(=O)Nc1cccc(NC(=N)N2CCCC2)c1`, the melting point is reported as 182 to 183 °C. `COc1cc(Cc2nc(NCC(C)C)c3c(C)c(C#N)sc3n2)cc(OC)c1OC` showed a melting point of 129 to 131 °C. `CCCCCCCOCCCCCCNCc1c(CO)ccc(O)c1CO` showed a melting point of 72 to 74 °C. Molecule `CCOC(=O)c1c[nH]c(=S)n1C1CCc2c(F)cc(F)cc2C1` (stereo not given) has a melting point of 159 to 161 °C. For `CC(C)(C)[Si](C)(C)N1C(=O)C[C@H]1CI`, the melting point was 71 to 72 °C. Molecule `O=C(Nc1ccc2ccc(Cl)nc2n1)c1c(F)cccc1F` has a melting point of 242 °C. For `Cc1ccc(S(=O)(=O)NC(=O)NCCC(F)=C(F)F)cc1`, the melting point was 134 to 136 °C. Work on `CN1C(=O)C2CCCN2Cc2cc(Cl)ccc21` (stereo not given) yielded a melting point of 97 to 99 °C. `CCCOc1ccc(CC(=O)NCC(=O)O)cc1Cl` showed a melting point of 110 to 112 °C. Work on `O=C(COc1ccccc1)NC1C(=O)N2C(C(=O)OCc3ccc([N+](=O)[O-])cc3)=C(O)CCC12` (stereo not given) yielded a melting point of 160 to 162 °C. For `O=C(O)CCc1cc2cc(Cl)ccc2n1S(=O)(=O)c1cccc2cccnc12`, the melting point was 215 to 222 °C. With `COc1ccc(C(C)COc2nc(N)c3ncn(C4OC(CO)C(O)C4O)c3n2)cc1` (stereo not given) the melting point was 90 to 105 °C. Molecule `CCCCCCCCCCCCCCCCC[C@@H](C[C@@H]1OC(=O)[C@H]1CC)OC(=O)[C@H](CC(C)C)NC(=O)OCc1ccccc1` has a melting point of 44 to 47 °C. `CCCN1CCc2c(ccc3[nH]c(=O)c(=O)[nH]c23)C1` gave a melting point of 340 to 350 °C. For `CN1CCC(N(CCO)S(=O)(=O)c2ccc(Nc3nccc(Nc4ccc(F)cc4)n3)cc2)CC1`, the melting point was 125 to 135 °C. `CCOC(=O)c1cc2c(=O)n(-c3ccccc3)c3ccccc3n2c1` showed a melting point of 256 to 259 °C. Molecule `CCSc1cc2c(c(C(=O)O)c1)OCCO2` has a melting point of 153 to 154 °C. In the case of `CC(C)(N)c1ccc(-c2nc(Nc3ccc(CCN4CCOCC4)cc3)ncc2C#N)cc1`, the melting point is reported as 156 °C. `c1ccc(OCCCN2CCC(CNc3nc4ccccc4s3)CC2)cc1` gave a melting point of 114 °C. For `COC(=O)C(Br)c1nsc2ccc(-n3c(=O)cc(C(F)(F)F)n(C)c3=O)cc12` (stereo not given), the melting point was 84 to 87 °C. For `C=CC(=O)NCCOC(C)(C)OCCNC(=O)C=C`, the melting point was 94 to 95 °C. Work on `CC(C)COC(=O)N[C@@H](CC(C)C)C(=O)N[C@@H](C(C)C)[C@@H](O)c1c(-c2ccccc2)c1=O` yielded a melting point of 145 to 146 °C. `CC12CCC3c4ccc(O)cc4CCC3(C=C(F)F)C1CCC2O` (stereo not given) gave a melting point of 154 to 156 °C. With `COc1cc(C(F)(F)F)nc2c(Cl)ccc(F)c12` the melting point was 198 to 200 °C. `O=c1[nH]c2cc(Cl)ccc2c(NS(=O)(=O)c2ccccc2)c1-c1ccccc1` gave a melting point of 268 °C. Work on `Cc1cn(C(C)C(=O)N(C)C)nc1-c1ccccc1Br` (stereo not given) yielded a melting point of 102 to 104 °C. `CCOC(=O)c1nc(-c2cc(Cl)c(OC)c(OC)c2)cs1` gave a melting point of 92 to 94 °C. `CCN(CCO)C(=O)c1ccc(C(=O)N2CCN(c3ncccc3NC(C)C)CC2)cc1` showed a melting point of 115 °C. Work on `CN(C)c1cccc2c(S(=O)(=O)NCCCCn3cnc4c(N)nc5ccccc5c43)cccc12` yielded a melting point of 200 to 201 °C. With `Cc1nc(C(O)CNC(C)(C)C)ccc1OCc1ccccc1` (stereo not given) the melting point was 96 to 97 °C. Work on `NS(=O)(=O)c1cc2nc(O)c(O)nc2c2scnc12` yielded a melting point of over 400 °C. Molecule `COCOc1ccc(-c2ncc3ncc(N4CCNCC4=O)cc3n2)cc1` has a melting point of 200 to 202 °C. `CN(C)c1ccc(NC(=O)N(C[C@@H]2CCC[C@H](CN(CC(C)(C)C)C(=O)Nc3ccc(N(C)C)cc3)C2)CC(C)(C)C)cc1` showed a melting point of 171 to 173 °C. `COC(=O)CN(CC(F)(F)F)c1ccc(C#N)c(C(F)(F)F)c1` showed a melting point of 144 to 145 °C. `COc1ccccc1C(=O)OC1=C(c2nnc(-c3ccccc3OC)o2)N(C)S(=O)(=O)c2ccccc21` gave a melting point of 119 to 120 °C. `Cc1ccc(C(=S)c2[nH]c3cc(Cl)ccc3c2N)cc1` gave a melting point of 172 to 173 °C. `CCNC(=O)Nc1ccc2c(=O)n(CCCCN3CC=C(c4ccccc4)CC3)c(=O)[nH]c2c1` showed a melting point of 220 °C. For `COc1ccc(C(=O)Nc2ccc(F)c(F)c2)cc1N`, the melting point was 171 to 172 °C. For `Cc1cc(C)cc(Oc2c(CCCc3ccccc3)c(C)[nH]c(=O)c2I)c1`, the melting point was 220 °C. `COc1ccc(CNCC(O)COc2cccc3[nH]c4ccccc4c23)c(OC)c1` (stereo not given) showed a melting point of 152 to 154 °C. For `CN(C)C=C(C#N)C(=O)Nc1cc(Cl)ccc1Cl`, the melting point was 175 to 176 °C. Molecule `NC(=O)Nc1cccc2c1C(=O)c1c-2n[nH]c1-c1ccco1` has a melting point of 278 °C. Work on `CN1CCN(C2=Nc3cc(Cl)cc4c3N(CC4)c3ccccc32)CC1` yielded a melting point of 199 to 200 °C. With `CCOC(=O)C(=O)c1oc(-n2cnc3ccccc32)nc1-c1ccc(Cl)cc1` the melting point was 143 to 144 °C. Work on `CC12CCC(C(=Cc3ccc(O)cc3)C1=O)C2(C)C` (stereo not given) yielded a melting point of 220 °C. `O=C(O)c1cc2cc(CCNS(=O)(=O)c3ccc(Cl)cc3)ccc2o1` showed a melting point of 193 to 195 °C. Molecule `CC(=O)N(C)c1ccc(-c2ccnc3c(C(=O)c4ccco4)cnn23)cc1` has a melting point of 202 to 204 °C. In the case of `Cc1nn(C)c(NCC(C)(C)C)c1N=O`, the melting point is reported as 83 to 84 °C. Work on `NNC(=O)c1ccnc2[nH]ccc12` yielded a melting point of 239 to 240 °C. Molecule `C=CCN1C(=O)C2=C(c3ccccc3)N(CC=C)C(=O)C2=C1c1ccccc1` has a melting point of 216 to 217 °C. For `COC(=O)c1ccc(Cn2c(C(=O)NC(N)=S)cc3cc(C)cc(C)c32)cc1`, the melting point was 222 to 224 °C. `NC1CCN(c2c(F)cc3c(=O)c(C(=O)O)cn(C4CC4)c3c2F)C1` (stereo not given) gave a melting point of 290 to 292 °C. Molecule `CCCNc1onc2c1c(=O)n(C)c(=O)n2C` has a melting point of 164 to 166 °C. `CC(C)c1c(C(=O)Nc2ccc(O)cc2)c(-c2ccccc2)c(-c2ccc(F)cc2)n1CC[C@@H]1C[C@@H](O)CC(=O)O1` showed a melting point of 130 to 133 °C. `Cn1ncc2[nH]c3ccc(-c4cccc(O)c4)cc3c(=O)c21` gave a melting point of over 250 °C. In the case of `COC(=O)N[C@H](C(=O)N[C@@H](Cc1ccccc1)[C@@H](O)CN(Cc1ccc(-c2cncs2)cc1)NC(=O)[C@@H](NC(=O)OC)C(C)(C)C)C(C)C`, the melting point is reported as 114 to 115 °C. In the case of `O=C1c2ccccc2-c2ccc(-c3nc(CCl)co3)cc21`, the melting point is reported as 188 to 189 °C. For `CC(=O)NC(CC(=O)O)CN(C)C` (stereo not given), the melting point was 202 °C. `CCOC(=O)C1C(=O)Nc2ccccc2SC1c1ccc(OC)cc1` (stereo not given) gave a melting point of 192 °C. `CCN1CCN(c2nccc(Oc3ccc(NC(=O)c4cc(F)cc(N5CCCCC5)c4)c4ccccc34)n2)CC1` showed a melting point of 86 to 87 °C. `CC(C)CCC1C(=O)N(c2c(F)c(F)nc(F)c2F)S(=O)(=O)N1C` (stereo not given) gave a melting point of 80.5 to 81.5 °C. `CCCCCC(Cc1cnc(SCCC)n1Cc1ccccc1Cl)C(=O)O` (stereo not given) showed a melting point of 122 to 124 °C. For `COc1ccc(CCNCC(O)COc2ccc(-c3nc(-c4cccs4)c[nH]3)cc2)cc1OC` (stereo not given), the melting point was 127 to 129 °C. `CN(C)C1CCN(c2nc(N3CCOCC3)c3ncnc(NCCCc4ccccc4)c3n2)CC1` gave a melting point of 82 to 84 °C. `O=C(C=Cc1cccs1)Nc1nnn[nH]1` gave a melting point of 287 °C. `COCCOCOc1c(C(C)(C)C)cc(-c2nc(N)n[nH]2)cc1C(C)(C)C` showed a melting point of 233 to 235 °C. Work on `CCOC(=O)C(=CNc1ccc(F)c(F)c1OCc1ccccc1)C(=O)OCC` yielded a melting point of 87 °C. With `COc1ccc(C(=O)NCc2cccc3c2C(=O)N(C2CCC(=O)NC2=O)C3=O)cc1` (stereo not given) the melting point was 193 to 195 °C. With `O=CC(=Cc1ccc(Cl)cc1)C(C=O)=Cc1ccc(Cl)cc1` the melting point was 172 to 173 °C. `Brc1c[nH]c2ccc(OCc3ccccc3)cc12` gave a melting point of 89 to 92 °C.
